# Patent publication US8957042B2, “Cancer treatment targeting non-coding RNA overexpression” (The Texas A&M University System, priority 2012, dated 2015)
# Columns and labels:
# HOTAIRM1 = HOTAIRM1 expression in Panc1 cells; type: cell-based, human
# Source text: (§1) Using short interfering RNAs corresponding to SpTF genes for RNAi assays, expression of the SpTF were successfully knocked down. Sp1 was knocked down using an oligonucleotide with a sequence set forth herein as SEQ ID NO:19. Sp3 was knocked down using an oligonucleotide with a sequence set forth herein as SEQ ID NO:20. Sp4 was knocked down using an oligonucleotide with a sequence set forth herein as SEQ ID NO:21. […] FIG. 6B. In this assay, HOTAIRM was amplified and detected using forward and reverse oligonucleotide sequences set forth herein as SEQ ID NOS:3 and 4, respectively. Additionally, HOTTIP was amplified and detected using forward and reverse oligonucleotide sequences set forth herein as SEQ ID NOS:10 and 11, respectively.
# HOTAIR = HOTAIR expression (RNA levels, real time PCR) in Panc1 cells; type: cell-based, human; conditions: for HOTAIR expression after siRNA transfection: vs siCT
# Description: (§2) RNA isolation and quantitative PCR: Total RNA was extracted either from pancreatic cancer cell lines or from tissue samples. Five control and siRNA HOTAIR-transfected tissue samples were analyzed, respectively, from xenograft study using mirVana RNA isolation kit from Ambion (Austin, Tex., USA), and quantitative PCR was carried out using iCycler IQTM real-time PCR detection system (Bio-Rad, Hercules, Calif., USA) after reverse transcription to cDNAs. The RT primer sets for HOTAIR, PCDHB5, PCDH10, JAM2, LAMB3, ABL2, SNA1 and LAMC2 were used as described previously (Gupta, R. A., et al., “Long Non-Coding RNA HOTAIR Reprograms Chromatin State to Promote Cancer Metastasis,” Nature 464:1071-1076, 2010). The forward and reverse oligonucleotide primer sequences specifically for HOTAIR amplification and detection are also set forth herein as SEQ ID NOS:1 and 2, respectively.
# HOTTIP = HOTTIP expression in Panc1 cells; type: cell-based, human
# Source text: as §1
# miR-21 and miR-181b [1] = experiment: Oncogenic miR levels in Panc28 cells (real time PCR); type: cell-based, human; conditions: 100 nM siRNA
# Description: (§3) Panc28 and L3.6pL pancreatic cancer cell lines were seeded (6×10^4 per well) in 6-well plates in DMEM:Ham's F-12 medium supplemented with 2.5% charcoal-stripped FBS without antibiotic and left to attach for 1 d. Single and triple Sp siRNA knockdown (iSp1, iSp3, iSp4) along with iLamin as control was performed using LipofectAMINE™2000 transfection reagent as per the manufacturer's protocol to attain 100 nM concentration of siRNA in the media. Cells were left with the transfection mixture for 24-48 hrs before changing to fresh 2.5% DMEM-F12 media. Cells were harvested after 60-72 hrs for protein, mRNA or miRNA. miRNA was extracted using mirVana™ miRNA extraction kit (Applied Biosystems) according to manufacturer's protocol and was used to assess expression of various non-coding RNAs using different primers and determined by real-time PCR.
# Sp1, Sp3, and Sp4 mRNA = experiment: Sp1, Sp3, Sp4 mRNA knockdown in Panc1 cells; type: cell-based, human; conditions: vs siCT
# Source text: as §1
# miR-21 and miR-181b [2] = experiment: Oncogenic miR levels in L3.6pL cells (real time PCR); type: cell-based; conditions: 100 nM siRNA
# Description: as §3
# Panc1 cells [3] = experiment: Cell proliferation (cell counting) of Panc1 cells after siRNA transfection; type: cell-based, human; conditions: vs control oligonucleotide
# Description: (§4) Cell proliferation and fluorescence-activated cell sorting analysis and apoptosis: Cells were seeded in 12-well plates and transfected with either appropriate siRNA or expression vectors, and cell numbers were counted at the indicated times using a Coulter Z1 cell counter (Beckman Coulter, Fullerton, Calif., USA). For fluorescence-activated cell sorting analysis, after pancreatic cancer cells were transfected with siRNAs for either control or HOTAIR, cells were stained with propidium iodide solution and were analyzed on a FACS Calibur Flow Cytometer (Becton Dickinsin Systems, Franklin Lakes, N.J., USA).
# Panc28 cells = experiment: Cell proliferation of Panc28 cells after siRNA transfection; type: cell-based, human; conditions: 48 and 72 hours, vs siLamin
# miR-27a, ZBTB10 = conditions: colon cancer cells; cited from earlier work
# ROS = ROS induction in pancreatic cancer cells; type: cell-based; conditions: pancreatic cancer cells (data not shown)
# ZBTB10 = ZBTB10 expression in Panc1 cells; type: cell-based, human
# miR-27a = miR-27a expression in Panc1 cells; type: cell-based, human
# [4] = system: Sp1, Sp3, and Sp4 proteins; experiment: Sp1, Sp3 and Sp4 protein expression in Panc1 cells; type: cell-based, human
# MALAT-1 [5] = experiment: MALAT-1 expression (RNA abundance) in L3.6pL cells; type: cell-based; conditions: doses of 5.0 and 7.0 μM
# Description: (§5) MALAT-1 RNA was detected using forward and reverse oligonucleotides with sequences set forth herein as SEQ ID NOS:7 and 8. Furthermore, MALAT-1 can be detected in serum obtained from pancreatic cancer patients (not shown) and this correlates with the reported high expression of MALAT-1 in pancreatic tumors compared to non-tumor tissues. Subsequent MALAT-1 knockdown studies with RNA interference were conducted using two oligonucleotides (siMALAT-1a and siMALAT-1b), the sequences of which are set forth herein as SEQ ID NOS:5 and 6, respectively. […] Thus, MALAT-1 and MALAT-1-regulated genes play a role in pancreatic cancer cell growth. […] Additional studies on the role of MALAT-1 in cell survival and kinase signaling were performed, because both pathways are affected, in part, by overexpression of growth factors and activating RAS mutations. These aspects are common in many pancreatic cancer cell lines and tumors.
# MALAT-1 [6] = experiment: MALAT-1 expression (RNA abundance) in Panc1 cells; type: cell-based, human; conditions: doses of 5.0 and 7.0 μM
# Description: as §5
# L3.6pL cells [7] = experiment: Xenograft of siRNA-transfected L3.6pL cells in nude mice; type: in vivo
# Description: Xenograft study: L3.6pL cells (6×10^4 ml) were transfected with 100 nM siHOTAIR or siCT using Lipofectamine. After 48 h cells were collected and 1×10^6 cells injected into either side of the flank area of female nude mice (Harlan), and tumor volumes and weights were determined in mice from the siHOTAIR (six mice) or siCT (six mice) groups as described, and siHOTAIR levels were determined by realtime PCR. Tumor volumes were measured (0.5×length×width^2) and after 16 days, the mice were killed and tumor weights were measured and also used for further analysis as described.
# Immunohistochemistry and TUNEL assay: Tissue sections were deparaffinized in xylene and treated with graded series of alcohol and rehydrated in PBS. Antigen retrieval was done using 10 mM sodium citrate (pH 6.0-6.2) and endogenous peroxidase was blocked by 3% hydrogen peroxide in methanol for 6 min. Slides were then incubated with blocking serum (Vecstatin ABC Elite kit, Vector Laboratories, Burlingame, Calif., USA) for 45 min. Samples were then incubated overnight with Ki-67 and PCNA antibodies at 4° C. Sections were then washed in PBST and then incubated with biotinylated secondary antibody followed by streptavidin. The brown staining specific for antibody binding was developed by exposing the avidin and biotinylated peroxidase complex to diaminobenzidine reagent (Vector Laboratories) and sections were then counterstained with hematoxylin (Vector Laboratories). The in situ cell death detection POD kit was used for the TUNEL assay according to the instructions in the protocol for tissue sections.
# Panc1 cells [8] = experiment: Annexin V apoptosis assay, Panc1; type: cell-based, human; conditions: Panc1 cells transfected with siRNA
# Description: (§6) Boyden chamber cell invasion and apoptosis assays: Pancreatic cancer cells were transfected with either siRNAs (HOTAIR vs. control) or expression vectors (empty vs. HOTAIR) and cell invasion assay was performed as described previously. Cells were transfected with siCT or siHOTAIR and after 72 h, cells were stained for Annexin V using the Vibrant apoptosis assay kit as described.
# [9] = system: cPARP, EZH2, Cyclin D1, survivin, VEGF; experiment: Expression of cPARP, EZH2, Cyclin D1, survivin, VEGF in Panc1 cells; type: cell-based, human; conditions: Panc1 cells transfected with siRNA
# L3.6pL cells [10] = experiment: Annexin V apoptosis assay, L3.6pL; type: cell-based; conditions: L3.6pL cells transfected with siRNA
# Description: as §6
# L3.6pL cells [11] = experiment: Cell proliferation (cell counting) of L3.6pL cells after siRNA transfection; type: cell-based; conditions: vs control oligonucleotide
# Description: as §4
# Panc28 and Panc1 cells = experiment: Transwell migration of pancreatic cancer cells (Boyden chamber); type: cell-based, human; conditions: pancreatic cancer cells (not shown)
# Description: as §6
# GDF15 promoter = GDF15 promoter luciferase assay in Panc1 cells; type: cell-based, human
# Description: siRNA transfection and luciferase assay: Pancreatic cancer cells were transfected with 100 nM of control siRNA or HOTAIR siRNA I (available from Sigma Aldrich, catalogue No. SASI_Hs02—00380445) or HOTAIR siRNA II (available from Sigma Aldrich, catalogue No. SASI_Hs02—00380446) using Lipofectamine 2000 (Invitrogen, Grand Island, N.Y., USA). Panc1 cells were cotransfected with control siRNA or HOTAIR siRNA I and HOTAIR II, and various length of GDF15 luciferase constructs. Luciferase activities were measured after 24 h as described previously. MISSION siRNAs for EZH2 and Suz12 were also purchased from Sigma Aldrich.
# cyclin D1 and cyclin E [12] = experiment: Cyclin D1 and cyclin E mRNA in Panc1 cells; type: cell-based, human; conditions: Panc1 cells (FIG. 2C)
# Description: as §2
# cyclin D1 and cyclin E [13] = experiment: Cyclin D1 and cyclin E mRNA in L3.6pL cells; type: cell-based; conditions: L3.6pL cells (FIG. 2D)
# Description: as §2
molecule,measurement,setting,value
"siSp3: siRNA for Sp3, sequence SEQ ID NO:20 (GCGGCAGGUGGAGCCUUCACUTT; chemistry not given here)",HOTAIRM1 expression,HOTAIRM1,significant decrease
same,HOTAIR expression after siRNA transfection,HOTAIR,significant decrease
same,HOTTIP expression,HOTTIP,significant decrease
same,miR-21 expression,miR-21 and miR-181b [1],decrease
same,miR-181b expression,miR-21 and miR-181b [1],decrease
same,"mRNA level of the respective Sp (Sp1, Sp3, Sp4)","Sp1, Sp3, and Sp4 mRNA",decreased
same,miR-21 expression,miR-21 and miR-181b [2],decrease
same,miR-181b expression,miR-21 and miR-181b [2],decrease
"siMALAT-1a: siRNA for MALAT-1 knockdown, SEQ ID NO:5 (GGCAAUAGAGGCCCUUAA; listed as RNA, chemistry not given here)",cell proliferation / cell growth,Panc1 cells [3],significant inhibition
same,cell proliferation,Panc28 cells,significant inhibition
"siSp4: siRNA for Sp4, sequence SEQ ID NO:21 (GCAGUGACACAUUAGUGAGCTT; chemistry not given here)",HOTAIRM1 expression,HOTAIRM1,significant decrease
same,HOTAIR expression after siRNA transfection,HOTAIR,significant decrease
same,HOTTIP expression,HOTTIP,significant decrease
same,miR-21 expression,miR-21 and miR-181b [1],decrease
same,miR-181b expression,miR-21 and miR-181b [1],decrease
same,"mRNA level of the respective Sp (Sp1, Sp3, Sp4)","Sp1, Sp3, and Sp4 mRNA",decreased
same,miR-21 expression,miR-21 and miR-181b [2],decrease
same,miR-181b expression,miR-21 and miR-181b [2],decrease
"COC(=O)[C@@]1(C)CCC2(C)CC[C@]3(C)C(=CC(=O)[C@@H]4C5(C)C=C(C#N)C(=O)C(C)(C)[C@@H]5CCC43C)C2C1 (stereo partly drawn) [CDODA-Me, methyl 2-cyano-3,11-dioxo-18β-olean-1,12-dien-30-oate]",ZBTB10,"miR-27a, ZBTB10",increased
same,microRNA (miR)-27a,"miR-27a, ZBTB10",decreased
same,HOTAIR expression,"HOTAIR; drug treatment, 24 hrs (FIG. 7B)",decreased
same,ROS,ROS,induce ROS
same,ZBTB10 expression,ZBTB10,induction
same,miR-27a,miR-27a,downregulation
same,"Sp1, Sp3, and Sp4 proteins",[4]; 24 hrs (FIG. 7A),downregulate
same,Sp proteins after 48 hrs,[4]; 48 hrs,almost non-detectable
same,"induction of ZBTB10, downregulation of miR-27a and repression of Sp1, Sp3, Sp4 after cotreatment with antioxidants",[4]; cotreatment with DTT or GSH,inhibited
same,MALAT-1 expression,MALAT-1 [5],significantly downregulate
same,MALAT-1 expression,MALAT-1 [6],significantly downregulate
"siHOTTIP: siRNA for HOTTIP, SEQ ID NO:9 (GCACAGAGAUAAUGGCAAAUU; listed as RNA, chemistry not given here)",reduction in tumor weight,"L3.6pL cells [7]; at sacrifice, vs control",~75%
same,tumor volume,"L3.6pL cells [7]; over ten days, vs control cells",significant reduction
same,Annexin V staining (apoptosis),Panc1 cells [8],increased staining
same,cell proliferation / cell growth,Panc1 cells [3],reductions in cell growth
same,PARP cleavage / cPARP,[9],induced expression
same,"expression of EZH2, Cyclin D1, survivin and VEGF",[9],decreased expression
same,Annexin V staining (apoptosis),L3.6pL cells [10],increased staining
same,cell proliferation / cell growth,L3.6pL cells [11],reductions in cell growth
same,transwell migration,Panc28 and Panc1 cells,significantly decreased
"siHOTAIR II: HOTAIR siRNA II, Sigma Aldrich catalogue No. SASI_Hs02—00380446 (UGAACACGACUUGGUGUGGTT; chemistry not given here)",pancreatic tumor weight,"L3.6pL cells [7]; after 16 days, vs siCT",dramatic decrease
same,HOTAIR expression in tumors,"L3.6pL cells [7]; end of study, vs siCT",dramatic decrease
same,pancreatic tumor volume,"L3.6pL cells [7]; up to 16 days, vs siCT",dramatic decrease
same,Annexin V staining (apoptosis),Panc1 cells [8],enhanced
same,"luciferase activity, GDF15 promoter constructs -3500 to +41, -1086 to +41 and -474 to +41",GDF15 promoter,decreased
same,expression of cyclin D1 and cyclin E,cyclin D1 and cyclin E [12],decreased expression
same,expression of cyclin D1 and cyclin E,cyclin D1 and cyclin E [13],decreased expression
same,Annexin V staining (apoptosis),L3.6pL cells [10],enhanced
"siMALAT-1b: siRNA for MALAT-1 knockdown, SEQ ID NO:6 (GAAUUCCGGUGAUGCGAGU; listed as RNA, chemistry not given here)",cell proliferation / cell growth,Panc1 cells [3],significant inhibition
same,cell proliferation,Panc28 cells,significant inhibition
